{"source": "patent US20260193264A1", "about": "“BENZOYPARAZINE PYRAZINES AND THEIR USES” (FOGHORN THERAPEUTICS INC., priority 2022, published 2026)", "key": {"[1]": {"molecular_target": "T1, HiBiT-BRM fusion protein in stable HeLa cell line (Homo sapiens, UniProt P51531)", "T1 construct": "expressed in transfected cells", "T1 sequence (P51531 whole entry, the tested form may be a part)": "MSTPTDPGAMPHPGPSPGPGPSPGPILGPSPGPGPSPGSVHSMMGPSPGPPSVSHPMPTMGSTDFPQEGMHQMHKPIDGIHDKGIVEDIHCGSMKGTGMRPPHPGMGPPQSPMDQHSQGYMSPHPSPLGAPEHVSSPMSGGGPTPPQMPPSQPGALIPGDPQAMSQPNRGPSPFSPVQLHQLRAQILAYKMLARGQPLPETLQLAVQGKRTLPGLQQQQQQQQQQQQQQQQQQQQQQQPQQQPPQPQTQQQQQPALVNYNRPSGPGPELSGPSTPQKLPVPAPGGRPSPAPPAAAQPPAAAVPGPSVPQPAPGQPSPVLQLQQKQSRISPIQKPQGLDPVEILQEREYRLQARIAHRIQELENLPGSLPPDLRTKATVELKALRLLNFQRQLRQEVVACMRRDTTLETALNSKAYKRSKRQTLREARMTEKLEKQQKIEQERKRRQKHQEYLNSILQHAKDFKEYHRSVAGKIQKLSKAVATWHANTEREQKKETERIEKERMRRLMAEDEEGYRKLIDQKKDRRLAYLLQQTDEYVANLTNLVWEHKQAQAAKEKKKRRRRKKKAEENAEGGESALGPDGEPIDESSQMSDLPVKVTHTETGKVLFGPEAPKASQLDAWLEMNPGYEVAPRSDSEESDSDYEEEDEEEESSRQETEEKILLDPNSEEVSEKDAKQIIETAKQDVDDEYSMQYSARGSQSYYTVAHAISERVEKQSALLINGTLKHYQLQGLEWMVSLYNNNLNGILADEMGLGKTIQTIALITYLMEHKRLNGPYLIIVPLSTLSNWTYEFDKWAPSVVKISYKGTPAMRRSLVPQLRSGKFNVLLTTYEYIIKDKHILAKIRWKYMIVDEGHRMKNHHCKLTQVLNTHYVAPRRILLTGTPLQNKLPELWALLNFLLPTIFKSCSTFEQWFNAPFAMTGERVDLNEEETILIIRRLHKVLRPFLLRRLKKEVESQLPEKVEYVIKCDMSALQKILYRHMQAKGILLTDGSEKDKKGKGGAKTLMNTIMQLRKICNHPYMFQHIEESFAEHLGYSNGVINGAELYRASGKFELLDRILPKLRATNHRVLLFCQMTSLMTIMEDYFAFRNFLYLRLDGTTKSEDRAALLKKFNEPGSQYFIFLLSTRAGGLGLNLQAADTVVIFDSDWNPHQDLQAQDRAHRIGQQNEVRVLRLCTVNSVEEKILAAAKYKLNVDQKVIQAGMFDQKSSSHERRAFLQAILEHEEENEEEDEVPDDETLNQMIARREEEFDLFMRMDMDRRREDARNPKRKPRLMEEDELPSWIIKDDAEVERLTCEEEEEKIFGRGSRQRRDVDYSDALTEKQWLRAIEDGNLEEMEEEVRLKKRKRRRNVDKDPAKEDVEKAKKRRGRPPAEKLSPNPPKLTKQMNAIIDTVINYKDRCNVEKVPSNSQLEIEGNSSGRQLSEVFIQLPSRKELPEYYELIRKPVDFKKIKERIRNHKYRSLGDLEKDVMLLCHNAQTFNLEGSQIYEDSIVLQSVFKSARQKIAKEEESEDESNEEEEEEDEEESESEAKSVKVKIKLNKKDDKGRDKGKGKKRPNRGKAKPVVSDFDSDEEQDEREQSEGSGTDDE", "experiment": "HiBiT-BRM cell-based degradation assay (Nano-Glo HiBiT Lytic Detection, 24 h)", "set-up": "DC50: scale not given here", "conditions": "HeLa HiBiT-BRM cells; for DC50: read-out: BRM HiBit Degradation IC50; for BRM HiBit Degradation Maximum (%): top dose 30 μM", "procedure,_shortened": "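Stable HiBiT-BRM HeLa cells treated 24 h with 10-point 3-fold dilutions, top final dose 30 μM, in duplicate. Luminescence read after lytic LgBiT reagent. Percent degradation was normalised to DMSO (high control) and 2 μM reference BRM/BRG1 degrader (low control).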"}, "[2]": {"molecular_target": "T2, HiBit-BRG1 fusion protein in stable HeLa cell line expressing HiBit-BRG1 and LgBit (Homo sapiens, UniProt P51532)", "T2 construct": "expressed in transfected cells", "T2 sequence (P51532 whole entry, the tested form may be a part)": "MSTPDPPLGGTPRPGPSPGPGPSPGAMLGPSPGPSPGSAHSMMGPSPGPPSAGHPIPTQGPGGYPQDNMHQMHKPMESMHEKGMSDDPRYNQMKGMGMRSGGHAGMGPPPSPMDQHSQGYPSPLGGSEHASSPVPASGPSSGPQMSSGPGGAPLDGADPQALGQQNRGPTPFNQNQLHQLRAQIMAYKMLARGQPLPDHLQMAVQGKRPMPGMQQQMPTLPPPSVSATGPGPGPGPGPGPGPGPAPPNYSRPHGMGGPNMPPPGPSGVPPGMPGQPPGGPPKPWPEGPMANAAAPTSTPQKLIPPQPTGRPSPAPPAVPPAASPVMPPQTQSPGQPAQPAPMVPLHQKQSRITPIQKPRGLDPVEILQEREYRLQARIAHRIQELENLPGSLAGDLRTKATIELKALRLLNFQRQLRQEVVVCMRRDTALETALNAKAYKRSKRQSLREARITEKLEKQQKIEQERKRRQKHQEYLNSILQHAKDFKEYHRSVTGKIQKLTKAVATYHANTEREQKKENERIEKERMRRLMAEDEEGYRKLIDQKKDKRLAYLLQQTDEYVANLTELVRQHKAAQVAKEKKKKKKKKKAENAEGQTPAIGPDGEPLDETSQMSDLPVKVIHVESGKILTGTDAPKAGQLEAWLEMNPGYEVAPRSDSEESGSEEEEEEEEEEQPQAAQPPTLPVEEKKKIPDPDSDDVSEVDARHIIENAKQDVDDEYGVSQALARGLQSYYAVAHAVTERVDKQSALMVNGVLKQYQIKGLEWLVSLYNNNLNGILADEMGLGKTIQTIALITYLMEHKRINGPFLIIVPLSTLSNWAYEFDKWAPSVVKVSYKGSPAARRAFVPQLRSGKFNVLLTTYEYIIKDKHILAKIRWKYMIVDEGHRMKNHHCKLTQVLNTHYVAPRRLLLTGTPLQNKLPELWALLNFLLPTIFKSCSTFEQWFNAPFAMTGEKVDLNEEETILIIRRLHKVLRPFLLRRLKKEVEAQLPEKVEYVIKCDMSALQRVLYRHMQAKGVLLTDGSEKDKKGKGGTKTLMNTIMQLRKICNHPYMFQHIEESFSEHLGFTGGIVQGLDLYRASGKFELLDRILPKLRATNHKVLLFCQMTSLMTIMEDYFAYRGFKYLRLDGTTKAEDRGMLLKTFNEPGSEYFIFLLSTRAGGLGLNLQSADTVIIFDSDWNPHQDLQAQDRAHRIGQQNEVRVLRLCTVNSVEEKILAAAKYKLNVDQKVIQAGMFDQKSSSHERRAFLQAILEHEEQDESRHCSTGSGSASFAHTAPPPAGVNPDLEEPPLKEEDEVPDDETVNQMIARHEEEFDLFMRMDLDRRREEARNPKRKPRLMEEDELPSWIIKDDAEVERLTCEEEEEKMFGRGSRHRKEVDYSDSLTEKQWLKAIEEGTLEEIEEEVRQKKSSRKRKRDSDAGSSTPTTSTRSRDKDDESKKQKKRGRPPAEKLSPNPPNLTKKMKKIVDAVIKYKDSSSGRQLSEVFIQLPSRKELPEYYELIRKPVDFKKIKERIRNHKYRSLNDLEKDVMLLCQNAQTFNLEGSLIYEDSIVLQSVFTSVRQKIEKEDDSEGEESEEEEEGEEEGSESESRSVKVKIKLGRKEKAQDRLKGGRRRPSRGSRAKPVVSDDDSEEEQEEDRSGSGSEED", "experiment": "HiBiT-BRG1 cell-based degradation assay (Nano-Glo HiBiT, 24 h)", "conditions": "HeLa HiBit-BRG1/LgBit cells; for DC50: read-out: BRMG1 HiBit Degradation IC50; for Dmax: read-out: BRG1 HiBit Degradation Maximum (%)", "procedure,_shortened": "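Stable HeLa line co-expressing HiBiT-BRG1 and LgBiT, compound-treated 24 h; luminescence read after Nano-Glo HiBiT lytic reagent. % degradation normalised between DMSO (high control) and 2 μM reference BRM/BRG1 degrader (low control).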"}}, "data": [{"smiles": "COC[C@@H]1CN(c2cc(C(C(=O)N3C[C@H](O)C[C@H]3C(=O)N[C@@H](C)c3ccc(-c4scnc4C)cc3)C(C)C)on2)CCN1c1ccc2nnc(-c3ccccc3O)cc2c1", "note": "(stereo partly drawn) [Compound 144, (2S,4R)-4-hydroxy-1-(2-(3-((S)-4-(3-(2-hydroxyphenyl)cinnolin-6-yl)-3-(methoxymethyl)piperazin-1-yl)isoxazol-5-yl)-3-methylbutanoyl)-N-((S)-1-(4-(4-methylthiazol-5-yl)phenyl)ethyl)pyrrolidine-2-carboxamide]", "values": [{"measurement": "DC50", "setting": "[1]", "value": "< 0.01", "unit": "µM"}, {"measurement": "BRM HiBit Degradation Maximum (%)", "setting": "[1]", "value": "A (“A” indicates maximum degradation ≥75%)"}, {"measurement": "DC50", "setting": "[2]", "value": "> 0.01", "unit": "µM"}, {"measurement": "Dmax", "setting": "[2]; top dose 30 μM", "value": "> 75", "unit": "%"}]}, {"smiles": "Cc1ncsc1-c1ccc([C@H](C)NC(=O)[C@@H]2C[C@@H](O)CN2C(=O)[C@@H](c2cc(-c3cnc(N4CCN(c5ccc6cc(-c7ccccc7O)nnc6c5)CC4)nc3)no2)C(C)C)cc1", "note": "[Compound 47]", "values": [{"measurement": "BRM HiBit Degradation Maximum (%)", "setting": "[1]", "value": "A (“A” indicates maximum degradation ≥75%)"}, {"measurement": "BRG1 HiBit Degradation Maximum (%)", "setting": "[2]; top dose 30 μM", "value": "C (“C” indicates maximum degradation <50%)"}]}, {"smiles": "Cc1ncsc1-c1ccc([C@H](C)NC(=O)[C@@H]2C[C@@H](O)CN2C(=O)[C@@H](c2cc(N3CCN(c4ccc5cc(-c6ccccc6O)nnc5c4)CC3)no2)C(C)C)cc1", "note": "[Compound 54, (2S,4R)-4-hydroxy-1-((R)-2-(3-(4-(3-(2-hydroxyphenyl)cinnolin-7-yl)piperazin-1-yl)isoxazol-5-yl)-3-methylbutanoyl)-N-((S)-1-(4-(4-methylthiazol-5-yl)phenyl)ethyl)pyrrolidine-2-carboxamide]", "values": [{"measurement": "DC50", "setting": "[1]", "value": "> 0.01", "unit": "µM"}, {"measurement": "BRM HiBit Degradation Maximum (%)", "setting": "[1]", "value": "B (“B” indicates maximum degradation ≥50%)"}, {"measurement": "Dmax", "setting": "[2]; top dose 30 μM", "value": "< 50", "unit": "%"}]}, {"smiles": "C#Cc1cc2nnc(-c3ccccc3O)cc2cc1N1CC2(CN(c3cc([C@H](C(=O)N4C[C@H](O)C[C@H]4C(=O)N[C@@H](C)c4ccc(-c5scnc5C)cc4)C(C)C)on3)C2)C1", "note": "[Compound 241, (2S,4R)-1-((R)-2-(3-(6-(7-ethynyl-3-(2-hydroxyphenyl)cinnolin-6-yl)-2,6-diazaspiro[3.3]heptan-2-yl)isoxazol-5-yl)-3-methylbutanoyl)-4-hydroxy-N-((S)-1-(4-(4-methylthiazol-5-yl)phenyl)ethyl)pyrrolidine-2-carboxamide]", "values": [{"measurement": "DC50", "setting": "[1]", "value": "< 0.01", "unit": "µM"}, {"measurement": "BRM HiBit Degradation Maximum (%)", "setting": "[1]", "value": "A (“A” indicates maximum degradation ≥75%)"}, {"measurement": "DC50", "setting": "[2]", "value": "< 0.01", "unit": "µM"}, {"measurement": "Dmax", "setting": "[2]; top dose 30 μM", "value": "> 75", "unit": "%"}]}, {"smiles": "Cc1ncsc1-c1ccc([C@H](C)NC(=O)[C@@H]2C[C@@H](O)CN2C(=O)C(C(C)C)n2cc(N3CCCC(CN4CCN(c5ccc6cc(-c7ccccc7O)nnc6c5)CC4)C3)nn2)cc1", "note": "(stereo partly drawn) [Compound 261, (2S,4R)-4-hydroxy-1-(2-(4-(3-((4-(3-(2-hydroxyphenyl)cinnolin-7-yl)piperazin-1-yl)methyl)piperidin-1-yl)-1H-1,2,3-triazol-1-yl)-3-methylbutanoyl)-N-((S)-1-(4-(4-methylthiazol-5-yl)phenyl)ethyl)pyrrolidine-2-carboxamide]", "values": [{"measurement": "DC50", "setting": "[1]", "value": "> 0.01", "unit": "µM"}, {"measurement": "BRM HiBit Degradation Maximum (%)", "setting": "[1]", "value": "A (“A” indicates maximum degradation ≥75%)"}, {"measurement": "DC50", "setting": "[2]", "value": "> 0.01", "unit": "µM"}, {"measurement": "Dmax", "setting": "[2]; top dose 30 μM", "value": "> 75", "unit": "%"}]}, {"smiles": "Cc1ncsc1-c1ccc([C@H](C)NC(=O)[C@@H]2C[C@@H](O)CN2C(=O)[C@@H](c2cc(-c3cnc(N4CC(c5cc6nnc(-c7ccccc7O)cc6cc5Cl)C4)nc3)no2)C(C)C)cc1", "note": "[Compound 32]", "values": [{"measurement": "DC50", "setting": "[1]", "value": "> 0.01", "unit": "µM"}, {"measurement": "BRM HiBit Degradation Maximum (%)", "setting": "[1]", "value": "B (“B” indicates maximum degradation ≥50%)"}, {"measurement": "Dmax", "setting": "[2]; top dose 30 μM", "value": "< 50", "unit": "%"}]}, {"smiles": "Cc1ncsc1-c1ccc([C@H](C)NC(=O)[C@@H]2C[C@@H](O)CN2C(=O)[C@@H](c2cc(N3CCC4(CC3)CC(Oc3ccc5cc(-c6ccccc6O)nnc5c3)C4)no2)C(C)C)cc1", "note": "[Compound 78, (2S,4R)-4-hydroxy-1-((R)-2-(3-(2-((3-(2-hydroxyphenyl)cinnolin-7-yl)oxy)-7-azaspiro[3.5]nonan-7-yl)isoxazol-5-yl)-3-methylbutanoyl)-N-((S)-1-(4-(4-methylthiazol-5-yl)phenyl)ethyl)pyrrolidine-2-carboxamide]", "values": [{"measurement": "DC50", "setting": "[1]", "value": "> 0.01", "unit": "µM"}, {"measurement": "BRM HiBit Degradation Maximum (%)", "setting": "[1]", "value": "A (“A” indicates maximum degradation ≥75%)"}, {"measurement": "Dmax", "setting": "[2]; top dose 30 μM", "value": "< 50", "unit": "%"}]}, {"smiles": "Cc1ncsc1-c1ccc([C@H](C)NC(=O)[C@@H]2C[C@@H](O)CN2C(=O)[C@@H](c2cc(N3CCC4(CCN(c5ccc6cc(-c7ccccc7O)nnc6c5)C4)CC3)no2)C(C)C)cc1", "note": "[Compound 83, (2S,4R)-4-hydroxy-1-((R)-2-(3-(2-(3-(2-hydroxyphenyl)cinnolin-7-yl)-2,8-diazaspiro [4.5]decan-8-yl)isoxazol-5-yl)-3-methylbutanoyl)-N-((S)-1-(4-(4-methylthiazol-5-yl)phenyl)ethyl)pyrrolidine-2-carboxamide]", "values": [{"measurement": "DC50", "setting": "[1]", "value": "< 0.01", "unit": "µM"}, {"measurement": "BRM HiBit Degradation Maximum (%)", "setting": "[1]", "value": "A (“A” indicates maximum degradation ≥75%)"}, {"measurement": "DC50", "setting": "[2]", "value": "> 0.01", "unit": "µM"}, {"measurement": "Dmax", "setting": "[2]; top dose 30 μM", "value": "> 75", "unit": "%"}]}, {"smiles": "Cc1ncsc1-c1ccc([C@H](C)NC(=O)[C@@H]2C[C@@H](O)CN2C(=O)[C@@H](c2cc(N3CCN([C@H]4CCN(Cc5ccc6nnc(-c7ccccc7O)cc6c5)CC4(F)F)CC3)no2)C(C)C)cc1", "note": "[Compound 137, (2S,4R)-1-((R)-2-(3-(4-((S)-3,3-difluoro-1-((3-(2-hydroxyphenyl)cinnolin-6-yl)methyl)piperidin-4-yl)piperazin-1-yl)isoxazol-5-yl)-3-methylbutanoyl)-4-hydroxy-N-((S)-1-(4-(4-methylthiazol-5-yl)phenyl)ethyl)pyrrolidine-2-carboxamide]", "values": [{"measurement": "DC50", "setting": "[1]", "value": "< 0.01", "unit": "µM"}, {"measurement": "BRM HiBit Degradation Maximum (%)", "setting": "[1]", "value": "A (“A” indicates maximum degradation ≥75%)"}, {"measurement": "DC50", "setting": "[2]", "value": "< 0.01", "unit": "µM"}, {"measurement": "Dmax", "setting": "[2]; top dose 30 μM", "value": "> 75", "unit": "%"}]}, {"smiles": "Cc1ncsc1-c1ccc([C@H](C)NC(=O)[C@@H]2C[C@@H](O)CN2C(=O)[C@H](C(C)C)n2cc(N3CCN4CCN(c5ccc6cc(-c7ccccc7O)nnc6c5)C[C@H]4C3)nn2)cc1", "note": "[Compound 198]", "values": [{"measurement": "DC50", "setting": "[1]", "value": "< 0.01", "unit": "µM"}, {"measurement": "BRM HiBit Degradation Maximum (%)", "setting": "[1]", "value": "A (“A” indicates maximum degradation ≥75%)"}, {"measurement": "DC50", "setting": "[2]", "value": "< 0.01", "unit": "µM"}, {"measurement": "Dmax", "setting": "[2]; top dose 30 μM", "value": "> 75", "unit": "%"}]}, {"smiles": "Cc1ncsc1-c1ccc([C@H](C)NC(=O)[C@@H]2C[C@@H](O)CN2C(=O)[C@@H](c2cc(N3CC4(CN(c5cc(C(F)F)c6cc(-c7ccccc7O)nnc6c5)C4)C3)no2)C(C)C)cc1", "note": "[Compound 205, (2S,4R)-1-((R)-2-(3-(6-(5-(difluoromethyl)-3-(2-hydroxyphenyl)cinnolin-7-yl)-2,6-diazaspiro[3.3]heptan-2-yl)isoxazol-5-yl)-3-methylbutanoyl)-4-hydroxy-N-((S)-1-(4-(4-methylthiazol-5-yl)phenyl)ethyl)pyrrolidine-2-carboxamide]", "values": [{"measurement": "DC50", "setting": "[1]", "value": "< 0.01", "unit": "µM"}, {"measurement": "BRM HiBit Degradation Maximum (%)", "setting": "[1]", "value": "A (“A” indicates maximum degradation ≥75%)"}, {"measurement": "Dmax", "setting": "[2]; top dose 30 μM", "value": "< 50", "unit": "%"}]}, {"smiles": "Cc1ncsc1-c1ccc([C@H](C)NC(=O)[C@@H]2C[C@@H](O)CN2C(=O)[C@H](c2cc(-c3cnc(N4CC(c5ccc6cc(-c7ccccc7O)nnc6c5)C4)nc3)no2)C(C)C)cc1", "note": "[Compound 12, (2S,4R)-4-hydroxy-1-[(2S)-2-[3-(2-{3-[3-(2-hydroxyphenyl)cinnolin-7-yl]azetidin-1-yl}pyrimidin-5-yl)-1,2-oxazol-5-yl]-3-methylbutanoyl]-N-[(1S)-1-[4-(4-methyl-1,3-thiazol-5-yl)phenyl]ethyl]pyrrolidine-2-carboxamide]", "values": [{"measurement": "DC50", "setting": "[1]", "value": "> 0.1", "unit": "µM"}, {"measurement": "BRM HiBit Degradation Maximum (%)", "setting": "[1]", "value": "C (“C” indicates maximum degradation <50%)"}, {"measurement": "Dmax", "setting": "[2]; top dose 30 μM", "value": "< 50", "unit": "%"}]}]}
